target: T1, human soluble guanylate cyclase alpha 1 and beta 1 subunits (sGC) (Homo sapiens, UniProt Q02108+Q02153); test: sGC cellular activator assay (cGMP, HTRF); format: cell-based; settings: CHO cells stably expressing human sGC alpha 1/beta 1, preincubated with 40 microM ODQ; cGMP readout; assay run with and without 50% human serum, Table 2 does not say which
T1 construct: expressed in transfected cells; host or cells: Chinese hamster ovary (CHO) cells, stably transfected
T1 sequence (Q02108 1-690): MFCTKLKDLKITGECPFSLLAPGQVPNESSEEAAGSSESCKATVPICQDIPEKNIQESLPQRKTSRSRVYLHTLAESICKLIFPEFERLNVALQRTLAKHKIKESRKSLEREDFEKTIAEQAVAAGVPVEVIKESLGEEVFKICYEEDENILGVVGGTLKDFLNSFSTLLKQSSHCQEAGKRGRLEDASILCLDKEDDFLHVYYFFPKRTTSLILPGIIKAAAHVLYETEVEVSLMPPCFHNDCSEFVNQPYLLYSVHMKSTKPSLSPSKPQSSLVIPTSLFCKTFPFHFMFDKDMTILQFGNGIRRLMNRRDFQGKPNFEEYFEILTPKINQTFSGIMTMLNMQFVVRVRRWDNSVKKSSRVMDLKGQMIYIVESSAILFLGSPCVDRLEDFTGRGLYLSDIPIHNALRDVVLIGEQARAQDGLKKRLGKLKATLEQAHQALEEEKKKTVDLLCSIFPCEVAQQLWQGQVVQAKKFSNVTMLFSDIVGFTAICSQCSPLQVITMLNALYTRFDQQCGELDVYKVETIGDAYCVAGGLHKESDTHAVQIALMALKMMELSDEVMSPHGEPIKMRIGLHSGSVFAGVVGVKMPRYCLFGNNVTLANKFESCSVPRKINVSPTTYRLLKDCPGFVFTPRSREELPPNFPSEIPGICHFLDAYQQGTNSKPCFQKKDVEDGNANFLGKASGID
T1 sequence (Q02153 1-619): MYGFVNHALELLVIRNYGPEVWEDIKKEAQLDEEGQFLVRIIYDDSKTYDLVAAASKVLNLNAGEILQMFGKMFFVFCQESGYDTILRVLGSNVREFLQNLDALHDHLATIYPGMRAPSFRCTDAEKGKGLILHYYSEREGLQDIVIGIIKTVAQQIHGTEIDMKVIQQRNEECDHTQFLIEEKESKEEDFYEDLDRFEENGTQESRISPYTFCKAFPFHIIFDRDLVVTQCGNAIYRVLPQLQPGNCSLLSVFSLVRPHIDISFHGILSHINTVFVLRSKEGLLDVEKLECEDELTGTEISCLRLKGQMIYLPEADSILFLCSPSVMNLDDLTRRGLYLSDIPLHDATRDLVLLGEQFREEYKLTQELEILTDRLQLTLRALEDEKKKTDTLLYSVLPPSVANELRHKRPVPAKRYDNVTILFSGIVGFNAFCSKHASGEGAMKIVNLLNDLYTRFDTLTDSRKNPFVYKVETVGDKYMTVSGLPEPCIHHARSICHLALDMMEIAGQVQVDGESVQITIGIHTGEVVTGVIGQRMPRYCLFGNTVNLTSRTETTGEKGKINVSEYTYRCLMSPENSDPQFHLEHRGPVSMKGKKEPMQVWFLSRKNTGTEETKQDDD
In short: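 First, CHO-sGC (human α1β1) cells get 1 h ODQ at 40 microM with IBMX and 0.1% BSA. Finally, cGMP is quantified by HTRF and EC50 computed.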

| EC50 [nM] | Compound |
| --- | --- |
| 20 | CCOc1c(C(=O)O)cnn1-c1cccc(-c2cccc(C)c2OCc2ccc3c(c2C)CCN(C[C@@H]2CCCO2)CC3)n1 [Compound 235] |
| 9 | COc1c(C(=O)O)cnn1-c1cccc(-c2cccc(C)c2OCc2ccc3c(c2C)CCN(C[C@H]2CCCCO2)C3)n1 [Compound 199] |
| 54 | COc1c(C(=O)O)cnn1-c1cccc(-c2cccc(C)c2OCc2ccc3c(c2)CCN(CC2CC2)C3)n1 [Compound 24] |
| 13 | CCOc1c(C(=O)O)cnn1-c1cccc(-c2cccc(C)c2OCc2ccc3c(c2C)CCN(C(C)COC)CC3)n1 (stereo not shown) [Compound 196] |
| 39 | CCOc1c(C(=O)O)cnn1-c1cccc(-c2cccc(C)c2OCc2ccc3c(c2)CCN(C2COC2)CC3)n1 [Compound 213] |
| 17 | COc1c(C(=O)O)cnn1-c1cccc(-c2cccc(C)c2OCc2ccc3c(c2Cl)CCN(CC(C)(C)C)C3)n1 [Compound 21] |
| 13 | COc1c(C(=O)O)cnn1-c1cccc(-c2cccc(C)c2OCc2cc(F)c3c(c2)CCN([C@@H]2CCOC2)C3)n1 [Compound 253] |
| 28 | CCOc1c(C(=O)O)cnn1-c1cccc(-c2cccc(C)c2OCc2ccc3c(c2C)CCN(C[C@@H]2CCCCO2)C3)n1 [Compound 236] |
| 20 | CCOc1c(C(=O)O)cnn1-c1cccc(-c2cccc(C)c2OCc2cc(C)c3c(c2)CCN(CC2(C)COC2)C3)n1 [Compound 200] |
| 4.2 | CCc1cc(COc2c(C)cccc2-c2cccc(-n3ncc(C(=O)O)c3OC)n2)cc2c1CN(C1CCOCC1)CC2 [Compound 248] |
| 280 | CCOc1c(C(=O)O)cnn1-c1cccc(-c2cccc(C)c2OCc2ccc3c(c2)CCCN(C2CCCOC2)C3)n1 (stereo not shown) [Compound 245] |
| 37 | CCOc1c(C(=O)O)cnn1-c1cccc(-c2cccc(C)c2OCc2ccc3c(c2C)CCN(C[C@@H]2CCCCO2)CC3)n1 [Compound 215] |
| 4.6 | COc1c(C(=O)O)cnn1-c1cccc(-c2cccc(C)c2OCc2ccc3c(c2F)CCN(C[C@@H]2COCCO2)C3)n1 [Compound 231] |
| 19 | CCOc1c(C(=O)O)cnn1-c1cccc(-c2cccc(C)c2OCc2cc(C)c3c(c2)CCN(C(C)COC)C3)n1 (stereo not shown) [Compound 210] |
| 62 | COc1c(C(=O)O)cnn1-c1cccc(-c2cc(C)cc(C)c2OCc2ccc3c(c2)CCN(C2CCOCC2)C3)n1 [Compound 181] |
| 44 | COc1c(C(=O)O)cnn1-c1cccc(-c2cccc(C)c2OCc2cc(C#N)c3c(c2)CCN(C2CCOCC2)C3)n1 [Compound 250] |
| 30 | CCOc1c(C(=O)O)cnn1-c1cccc(-c2cccc(C)c2OCc2ccc3c(c2C)CCN(C[C@@H]2COCCO2)CC3)n1 [Compound 211] |
| 23 | COc1c(C(=O)O)cnn1-c1cccc(-c2cccc(C)c2OCc2ccc3c(c2C)CCN(C2COC2)C3)n1 [Compound 16] |
| 14 | CCOc1c(C(=O)O)cnn1-c1cccc(-c2cccc(C)c2OCc2ccc3c(c2C)CCN(C[C@@H]2CCO2)CC3)n1 [Compound 228] |
| 8 | CCOc1c(C(=O)O)cnn1-c1cccc(-c2cccc(C)c2OCc2cc(C)c3c(c2)CCN(C2CCOC2)C3)n1 (stereo not shown) [Compound 241] |
| 25 | COc1c(C(=O)O)cnn1-c1cccc(-c2cccc(C)c2OCc2cc(F)c3c(c2)CCN([C@H]2CCOC2)C3)n1 [Compound 254] |
| 12 | COc1c(C(=O)O)cnn1-c1cccc(-c2cccc(C)c2OCc2ccc3c(c2C)CCN(C2CCOCC2)CC3)n1 [Compound 184] |
| 4.5 | COc1c(C(=O)O)cnn1-c1cccc(-c2cccc(C)c2OCc2ccc3c(c2C)CCN(C[C@@H]2COCCO2)CC3)n1 [Compound 204] |
| 8.5 | COc1c(C(=O)O)cnn1-c1cccc(-c2cccc(C)c2OCc2ccc3c(c2C)CCN(C[C@@H]2CCCO2)CC3)n1 [Compound 223] |
| 62 | COc1c(C(=O)O)cnn1-c1cccc(-c2cccc(C)c2OCc2ccc3c(c2)C(C)(C)CN(C2CCCOC2)C3)n1 (stereo not shown) [Compound 218] |

| EC50 [nM] | Compound |
| --- | --- |
| 35 | COc1c(C(=O)O)cnn1-c1cccc(-c2cccc(C)c2OCc2ccc3c(c2)C(C)(C)CN(C2CCOC2)C3)n1 (stereo not shown) [Compound 217] |
| 18 | COc1c(C(=O)O)cnn1-c1cccc(-c2cccc(C)c2OCc2ccc3c(c2Cl)CCN(C2COC2)C3)n1 [Compound 17] |
| 23 | CCOc1c(C(=O)O)cnn1-c1cccc(-c2cccc(C)c2OCc2ccc3c(c2C)CCN(CC2(C)COC2)CC3)n1 [Compound 190] |
| 16 | COc1c(C(=O)O)cnn1-c1cccc(-c2cccc(C)c2OCc2ccc3c(c2)CCN(CC2CCC2)C3)n1 [Compound 25] |
| 6.5 | COc1c(C(=O)O)cnn1-c1cccc(-c2cccc(C)c2OCc2cc(C)c3c(c2)CCN(CC2(C)COC2)C3)n1 [Compound 239] |
| 13 | COc1c(C(=O)O)cnn1-c1cccc(-c2cccc(C)c2OCc2ccc3c(c2F)CCN(C[C@H]2COCCO2)C3)n1 [Compound 234] |
| 12 | CCOc1c(C(=O)O)cnn1-c1cccc(-c2cccc(C)c2OCc2ccc3c(c2C)CCN(C[C@@H]2CCOC2)C3)n1 [Compound 189] |
| 4.7 | CCOc1c(C(=O)O)cnn1-c1cccc(-c2cccc(C)c2OCc2cc(C)c3c(c2)CCN([C@@H]2CCCOC2)C3)n1 [Compound 195] |
| 24 | COc1c(C(=O)O)cnn1-c1cccc(-c2cccc(C)c2OCc2ccc3c(c2Cl)CCN(C2CCC2)C3)n1 [Compound 20] |
| 370 | COc1ccc(OCc2ccc3c(c2C)CCN(C2CCOCC2)C3)c(-c2cccc(-n3ncc(C(=O)O)c3OC)n2)c1 [Compound 182] |
| 14 | COc1c(C(=O)O)cnn1-c1cccc(-c2cccc(C)c2OCc2ccc3c(c2Cl)CCN(C2CCOC2)C3)n1 (stereo not shown) [Compound 22] |
| 140 | COc1c(C(=O)O)cnn1-c1cccc(-c2cccc(C)c2OCc2ccc3c(c2)C(C)(C)CN(CC2COCCO2)C3)n1 (stereo not shown) [Compound 219] |
| 28 | COc1c(C(=O)O)cnn1-c1cccc(-c2cc(C)cc(C)c2OCc2ccc3c(c2C)CCN(C2CCOCC2)C3)n1 [Compound 180] |
| 10 | COc1c(C(=O)O)cnn1-c1cccc(-c2cccc(C)c2OCc2ccc3c(c2F)CCN([C@@H]2CCOC2)C3)n1 [Compound 252] |
| 3.3 | COc1c(C(=O)O)cnn1-c1cccc(-c2cccc(C)c2OCc2ccc3c(c2C)CCN(C[C@@H]2CCOC2)C3)n1 [Compound 191] |
| 13 | CCOc1c(C(=O)O)cnn1-c1cccc(-c2cccc(C)c2OCc2ccc3c(c2C)CCN([C@@H]2CCOC2)CC3)n1 [Compound 227] |
| 8.6 | COc1c(C(=O)O)cnn1-c1cccc(-c2cccc(C)c2OCc2ccc3c(c2)CCN(C[C@@H]2CCOC2)C3)n1 [Compound 188] |
| 7 | COc1c(C(=O)O)cnn1-c1cccc(-c2cccc(C)c2OCc2ccc3c(c2F)CCN([C@H]2CCOC2)C3)n1 [Compound 251] |
| 20 | CCOc1c(C(=O)O)cnn1-c1cccc(-c2cccc(C)c2OCc2ccc3c(c2C)CCN(CC2(F)COC2)C3)n1 [Compound 208] |
| 16 | COc1c(C(=O)O)cnn1-c1cccc(-c2cccc(C)c2OCc2cc(C)c3c(c2)CCN(C2COC2)C3)n1 [Compound 186] |
| 5.4 | COc1c(C(=O)O)cnn1-c1cccc(-c2cccc(C)c2OCc2ccc3c(c2C)CCN(C[C@H]2CCCO2)CC3)n1 [Compound 222] |
| 12 | COc1c(C(=O)O)cnn1-c1cccc(-c2cccc(C)c2OCc2cc(F)c3c(c2)CCN(C2CCOCC2)C3)n1 [Compound 201] |
| 30 | CCOc1c(C(=O)O)cnn1-c1cccc(-c2cccc(C)c2OCc2ccc3c(c2C)CCN(CC2COCCO2)C3)n1 (stereo in doubt) [Compound 185, 1-{6-[2-(2-(S)-1-[1,4]Dioxan-2-ylmethyl-5-methyl-1,2,3,4-tetrahydro-isoquinolin-6-ylmethoxy)-3-methyl-phenyl]-pyridin-2-yl}-5-ethoxy-1H-pyrazole-4-carboxylic acid] |
| 11 | COc1c(C(=O)O)cnn1-c1cccc(-c2cccc(C)c2OCc2cc(C)c3c(c2)CCN(C2CCOC2)C3)n1 (stereo not shown) [Compound 242] |

Source: patent US8906904B2, “Alkoxy pyrazoles as soluble guanylate cyclase activators” (Boehringer Ingelheim International GmbH, priority 2012, dated 2014)
